Test results as given in US20100135992A1, “Prolongation of Survival of an Allograft by Inhibiting Complement Activity” (Alexion Pharmaceuticals, Inc., priority 2006, published 2010).

Key:
[1] = test system: C3H heart allografts in presensitized BALB/c recipients; test: C3H heart allograft survival and histology in skin-presensitized BALB/c recipients (Examples 1-2); assay type: in vivo, mouse; details: FIG. 2A
Description: Rejection was defined as complete necrosis of the skin grafts.
Specimens were then embedded in paraffin, and sectioned for H&E staining. The microscopic sections were examined in a blinded fashion for severity of rejection by a pathologist. Criteria for graft rejection included the presence of vasculitis, thrombosis, hemorrhage and lymphocyte infiltration. These changes were scored as: 0, no change; 1, minimum change; 2, mild change; 3, moderate change; or 4, marked change.

[2] = test system: terminal complement activity; test: Complement hemolytic assay of recipient mouse sera (heart model); assay type: in vivo; details: POD3, presensitized heart recipients, FIG. 3
Method: Complement Hemolytic Assay The purified anti-C5 mAb was serially diluted twofold (175-0.1 μg/ml) in GVB^2+ buffer (gelatin Veronal-buffered saline: 0.1% gelatin, 141 mM NaCl, 0.5 mM MgCl2, 0.15 mM CaCl2, and 1.8 mM sodium barbital) and added in triplicate (50 μl/well) to a 96-well plate. BALB/c mouse serum was diluted to 40% v/v with GVB^2+ buffer and added ([…]) to the rows of the same 96-well plate such that the final concentration of BALB/c mouse serum in each well was 20%. The plate was then incubated at room temperature for approximately 30 min while chicken erythrocytes were prepared. Chicken erythrocytes were washed 5×1 ml with GVB^2+ buffer and resuspended to a final concentration of 5×10^7/ml in GVB^2+. Four milliliters of the chicken erythrocytes were sensitized by adding anti-chicken RBC polyclonal antibody (Intercell Technologies, Hopewell, N.J., 0.1% v/v) and the cells were incubated at 4° C. for 15 min with frequent vortexing. The cells were then washed 2×1 ml with GVB^2+ and resuspended to a final volume of 2.4 ml in GVB^2+. […] The plate was read at OD 415 nm using a microplate reader and the percentage of hemolysis was determined using this formula: […]
In the current study, terminal complement activity was measured by assessing the ability of recipient mouse sera to lyse antibody presensitized chicken erythrocytes and was compared at the same time-point (POD3).

[3] = test system: C3H heart allografts in presensitized BALB/c mice; test: Heart allograft survival, accelerated rejection in presensitized model (Example 4); assay type: in vivo, mouse; details: presensitized recipients
Description: In these experiments, the presensitization was brought about by prior transplantation of a skin graft. In general, presensitization can occur not only as a result of having received an earlier allograft, but can also be caused by having received multiple blood transfusions or in women who have been pregnant. Besides such presensitization methods, allografts with an ABO mismatch will be rapidly attacked and rejected because of preformed antibodies to the ABO antigens unless steps are taken to prevent such an attack.
(§1) This model is designed to mimic presensitized transplantation in humans, especially in relation to accelerated humoral rejection. Recipient mice were split into eight groups of six to eight mice each. The treatments were as follow.
Group 3″ (BB5.1 alone)—mice were administered the anti-mouse complement monoclonal antibody BB5.1 at a dose of 40 mg/kg body weight delivered intraperitoneally on a daily basis beginning at day −1 and continuing until the endpoint.
Group 4″ (cyclophosphamide alone)—mice were administered cyclophosphamide intravenously at a dose of 40 mg/kg body weight on each of days 0 and 1.
Group 6″ (BB5.1 plus cyclophosphamide)—mice were administered BB5.1 intraperitoneally at a dose of 40 mg/kg body weight on a daily basis beginning at day −1 and continuing until the endpoint. […]

[4] = test system: C3H heart allografts in presensitized BALB/c recipients; test: Immunoperoxidase staining of heart allografts in presensitized mouse recipients at necropsy; assay type: in vivo; set-up: key: 0, negative; 1+, equivocal; 2+, weak; 3+, moderate; 4+, intense; details: heart allograft, POD 3
Description: Immunohistochemistry Four micrometer sections were cut from tissue samples embedded in Tissue-Tek O.C.T gel (Optimum Cutting Temperature, Skura Finetek, Torrance, Calif.) mounted on gelatin-coated glass microscope slides and stained by a standard indirect avidin-biotin immunoperoxidase staining method using an Elite Vcctastain ABC kit (Vector Laboratories Inc., Burlingame, Calif.). Specimens were stained for CD4^+ and CD8^+ cells with biotin-conjugated rat anti-mouse CD4 mAb (clone YTS 191.1.2, Cedarlane Laboratories Ltd., Hornby, Ontario, Canada) and biotin-conjugated rat anti-mouse CD8 mAb (clone 53-6.7, Pharmingen, Franklin Lakes, N.J.), respectively. Intragraft monocyte/macrophage infiltration was detected by staining with biotin-conjugated rat anti-mouse Mac-1 mAb (Cedarlane Laboratories Ltd., Hornby, Ontario, Canada). Mouse IgG and IgM deposition in gratis was detected using biotin-conjugated goat anti-mouse-IgG and goat anti-mouse-IgM (Cedarlane). For identification of complement deposition, sections were serially incubated with goat anti-C3 or anti-C5 polyclonal Abs (Quidel, San Diego, Calif.), biotinylated rabbit anti-goat IgG (Vector Laboratories), and HRP-conjugated-streptavidin (Zymed Laboratories, South San Francisco, Calif.). Slides were washed with phosphate-buffered saline between steps, and examined under light microscopy. Negative controls were performed by omitting the primary antibodies. The immunostaining was scored in five high-power fields of each section, and five independent experiments were performed. The sections of immunoperoxidase staining were graded from 0 to 4+ according to the staining intensity: 0, negative; 1+, equivocal; 2+, weak staining; 3+, moderate staining; and 4+, very intensive staining.

[5] = test system: circulating anti-donor IgG and IgM antibodies; test: Flow cytometry of circulating anti-donor antibodies (heart model); assay type: in vivo, mouse; details: POD3, presensitized heart recipients, FIG. 4A
Method: Flow Cytometry The circulating anti-donor specific IgG and IgM antibodies were evaluated in the recipient serum by FACScan flow cytometry (Becton Dickinson, Mountain View, Calif.). Glotz et al., (1993); Tyan et al. (1994). Briefly, C3H mouse splenocytes were isolated and incubated at 37° C. for 30 minutes with serum from naive control and experimental groups. To stain for total IgG, IgG1, IgG2a, IgG2b and IgM, the cells were washed and incubated with FITC-conjugated goat antibody specific for the Fc portion of mouse IgG or with phycoerythrin-conjugated goat antibody specific for the μ-chain of mouse IgM (Jackson ImmunoResearch Laboratories, West Grove, Pa.), or with FITC-conjugated goat anti-mouse IgG1 (CALTAG Laboratories, Burlingame, Calif.), or with FITC-conjugated goat anti-mouse IgG2a (CALTAG), or with FITC-conjugated goat anti-mouse IgG2b (CALTAG). After 1 hour of staining at 4° C., the cells were washed with PBS, resuspended at 5×10^6/mL, and analyzed by flow cytometry for mean channel fluorescence intensity, which represents the antibody-binding reactivity.

[6] = test system: C3H heart allografts in presensitized BALB/c mice; test: Histological changes of heart allografts at necropsy (Example 4); assay type: in vivo, mouse; details: endpoint, score 0 normal to 4 marked change
Description: as §1

[7] = test system: C3H kidney allografts in presensitized BALB/c recipients; details: for nephrotoxicity: kidney allograft model development
Description: Animals Male adult C3H (H-2^k) mice and BALB/c (H-2^d mice (Jackson Labs, Bar Harbor, Me.) weighing 25-30 g were chosen as donors and recipients, respectively. Animals were housed under conventional conditions at the Animal Care Facility, The University of Western Ontario, and were cared for in accordance with the guidelines established by the Canadian Council on Animal Care.
Skin Presensitization Full-thickness skin grafts taken from C3H donors were cut into 1×1 cm^2 pieces and transplanted onto the backs of BALB/c recipient mice. Rejection was defined as complete necrosis of the skin grafts.
The donor ureter was also sutured to the recipient bladder using 10-0 sutures. The native kidneys were removed immediately after grafting. Graft rejection leading to host death was used as the endpoint of rejection for kidney transplants.
Measurement of Serum Creatinine Serum samples were obtained at study endpoint (time of rejection or POD100) after kidney transplantation. Serum creatinine levels were quantitated in 10 μL samples using the Sigma Diagnostics (Sigma, St. Louis, Mo.) procedure, which measures creatinine by a kinetic modification of the Jaffe reaction (Junge et al., 2004). Graft Histology At necropsy, tissue samples were processed for hematoxylin and eosin (H&E) staining (Wang et al, JI 2003) and evaluated for vasculitis, thrombosis, hemorrhage and lymphocyte infiltration; changes were scored as: 0, none; 1, minimal; 2, mild; 3, moderate or 4, marked compared to normal tissues.

[8] = test system: C3H kidney allografts in presensitized BALB/c recipients; test: Immunoperoxidase staining of kidney allografts in presensitized mouse recipients at necropsy; assay type: in vivo; set-up: key: 0, negative; 1+, equivocal; 2+, weak; 3+, moderate; 4+, intense; details: kidney allograft, at the time of rejection
Description: Immunohistochemistry Tissue samples embedded in Optimum Cutting Temperature (O.C.T.) gel (Skura Finetek, Torrance, Calif.) were sectioned and stained for CD4^+, CD8^+ and Mac-1^+ infiltrating cells and for IgG, IgM, C3 and C5 deposition using an Elite Vectastain ABC kit (Vector Laboratories Inc., Burlingame, Calif.). Primary biotinylated antibodies included anti-CD4 (YTS 191.1.2, Cedarlane Laboratories Ltd., Hornby, Ontario, Canada), anti-CD8 (53-6.7, BD Biosciences, Franklin Lakes, N.J.) and anti-Mac-1 (Cedarlane). Intragraft IgG and IgM deposition was detected using biotinylated goat anti-mouse-IgG and goat anti-mouse-IgM (Cedarlane). Complement deposition was detected following serial incubation with goat anti-mouse C3 or anti-mouse C5 polyclonal Abs (Quidel, San Diego, Calif.), biotinylated rabbit anti-goat IgG (Vector Laboratories), and HRP-conjugated-streptavidin (Zymed Laboratories, South San Francisco, Calif.). Negative controls were performed by omitting the primary antibodies. The immunostaining was scored in five high-power fields of each section using tissue samples from five animals per experimental group. Immunoreactivity was graded from 0 to 4+ according to staining intensity as follows: 0, negative; 1+, equivocal; 2+, weak; 3+, moderate; and 4+, very intensive staining.

[9] = test system: Bcl-2 and Bcl-xl proteins; test: Western blot of kidney grafts; assay type: in vivo, mouse; details: POD100 (accommodated) or rejected grafts, FIG. 14
Description: Western Blot Analysis Frozen kidney samples were sonicated, separated by electrophoresis and transferred to polyvinylidene difluoride (PVDF; Invitrogen) membranes. Intragraft expression of Bcl-2 and Bcl-XS/L was detected using the polyclonal sera N-19 and M-125, respectively (Santa Cruz Biotechnology, Inc.). Polyclonal anti-calsequestrin (Calbiochem) served as a sample loading control (Kobayashi et al., 1999). Antibody binding was detected by horseradish-peroxidase-conjugated goat anti-rabbit IgG and enhanced chemiluminescence development (Roche Laboratories) (Arp et al., 1996).

[10] = test system: terminal complement activity; test: Complement hemolytic assay of recipient mouse sera (kidney model); assay type: in vivo; details: POD7, presensitized kidney recipients, FIG. 12
Method: Complement Hemolytic Assay Terminal complement activity in recipient mouse sera was determined by standard methods to assess the ability of sera to lyse chicken erythrocytes presensitized with erythrocyte-specific antibodies as previously described (Wang et al., 1999).

[11] = test system: circulating anti-donor IgG and IgM antibodies; test: Flow cytometry of circulating anti-donor antibodies (kidney model); assay type: in vivo, mouse
Method: Flow Cytometry Circulating anti-donor specific IgG and IgM antibodies were evaluated in recipient sera by flow cytometry. Briefly, C3H mouse splenocytes were isolated and incubated at 37° C. for 30 minutes with serum samples obtained at the indicated timepoints from mice from the various treatment groups. To stain for total IgG or specific antibody subclasses, the washed cells were incubated with FITC-conjugated goat anti-mouse antibodies specific for the Fc portion of mouse IgG, mouse IgG1, mouse IgG2a, mouse IgG2b or mouse IgG3 (all from (CALTAG Laboratories, Burlingame, Calif.) or with a phycoerythrin-conjugated goat antibody specific for mouse IgM (Jackson ImmunoResearch Laboratories, West Grove, Pa.) for 1 hour at 4° C., washed and analyzed on a FACScan flow cytometer (Becton Dickinson, Mountain View, Calif.) (Collins et al., 1999; Pratt et al., 1996). The results are expressed as mean channel fluorescence intensity as a measure of the level of each anti-donor isotype in the samples.

[12] = test system: cardiac allograft in presensitized rats; details: cyclosporin A 10 mg/kg/day i.m., sCR1 15 mg/kg single i.v. bolus; cited from earlier work

O=P1(N(CCCl)CCCl)NCCCO1 (centres unmarked) [CyP, cyclophosphamide]
heart graft survival (time to rejection) [1]: 3.3 ± 0.5 days
terminal complement activity (lysis of antibody presensitized chicken erythrocytes by recipient sera) [2]: no effect
Mean survival time [3]: 3.3 ± 0.5 days
C3 immunoperoxidase staining grade [4]: 3+
C5 immunoperoxidase staining grade [4]: 3+
CD4 immunoperoxidase staining grade [4]: 1+
CD8 immunoperoxidase staining grade [4]: 1+
IgG immunoperoxidase staining grade [4]: 3+
IgM immunoperoxidase staining grade [4]: 1+
Mac-1 immunoperoxidase staining grade [4]: 3+
circulating anti-donor IgG levels [5]: partially down-regulated
Hemo (hemorrhage) median score [6]: 2.0
Infar (infarction) median score [6]: 4.0
Lymph (lymphocyte infiltration) median score [6]: 0.0
Throm (thrombosis) median score [6]: 3.0
Vasc (vasculitis) median score [6]: 2.0
nephrotoxicity [7]: significant nephrotoxicity

C[C@@H](N)CCNCCCCNC(=O)OCC(=O)NCCCCCCNC(=N)N [LF, LF15-0195]
C3 immunoperoxidase staining [8]: 3+
C5 immunoperoxidase staining [8]: 3+
IgG immunoperoxidase staining [8]: 3+
IgM immunoperoxidase staining [8]: 1+
Mac-1 immunoperoxidase staining [8]: 4+
expression of Bcl-2 and Bcl-xl proteins in kidney grafts [9]: undetectable
terminal/serum complement activity (in vitro serum hemolytic assay) [10]: no inhibitory effect
nephrotoxicity [7]: not associated with nephrotoxicity
kidney graft survival (time to rejection) ([7]; presensitized recipients, FIG. 11A): 6.0 ± 1.0 days
circulating anti-donor IgG levels ([11]; kidney recipients at time of rejection, triple-therapy POD 100, FIG. 13A): partially reduced
predominant anti-donor IgG subclass ([11]; presensitized kidney recipients, FIG. 13B): IgG1, IgG2a and IgG3

sCR1: soluble complement receptor 1, binds complements C3b and C4b
average time of graft rejection [12]: 44 days
